We go through 54 compounds from patent US11242555B2, “Molecular sensors and uses thereof” (New York University, priority 2018, dated 2022).

Where a name gives a salt, the structure may show the parent alone.

The test system of the first assay is double-stranded oligo probe (DNA). Description: High-throughput screen of a compound library with the linear oligo probe (FRET ratio, 384 well plate). It is filed as binding.
Conditions: not given
The protocol:
A library of compounds was mixed with the oligo probe in 384 well plate format. (A) The fluorescence spectra of the probe were recorded on a plate reader as in FIG. 21 and the FRET ratio (Cy5/Cy3 intensity) was calculated. […] (B) A library consisting of 1600 compounds from FDA and internationally approved drugs was screened to detect potential intercalators that can be drug repositioning targets.
The molecular sensors were used in vitro according to the following: 1) The sensors were diluted in a NaCl solution (e.g., in a 50-100 mM NaCl solution) and 0.2% BSA solution to a concentration of 1 μM. This can be adjusted depending on the sensitivity of the fluorescence measurement device. 2) The fluorescence spectrum was measured using a fluorescence spectrophotometer, a plate reader, or any other ad-hoc means. […] 3) The molecular species was added to be characterized for DNA binding properties or to be tested for intercalating or groove binding ability. The appropriate sensor is used (e.g., a linear or flexible molecular sensor). The fluorescence spectrum was measured again using the same methods and settings. 4) The FRET ratio was compared for both the sensor alone and sensor plus tested molecule. The FRET ratio is calculated by dividing the peak intensity of the acceptor fluorescence by that of the donor fluorescence.
`CCCCCCc1ccc(O)cc1O.Nc1c2ccccc2nc2ccccc12` [ACRISORCIN]: the FRET ratio came out at 0.2919. With `CCOP(=S)(OCC)Oc1nc(Cl)c(Cl)cc1Cl` [CHLORPYRIFOS], the FRET ratio was 0.5126. On to `CC(=O)Oc1cccc2c1C(=O)c1c(OC(C)=O)cc(C(=O)O)cc1C2=O` [DIACERIN], for which the FRET ratio came out at 0.7.

On to `CC(=O)Oc1cc2c(cc1OC(C)=O)[C@@H]1c3ccc(OC(C)=O)c(OC(C)=O)c3OC[C@]1(OC(C)=O)C2` [HAEMATOXYLIN PENTAACETATE], for which the FRET ratio amounted to 0.6134. On the same count and under the same terms, for `COc1ccc2c3c([nH]c2c1)C(C)=NCC3` [HARMALINE] the value was 0.646.

For the compound `COc1ccc2c(c1)[nH]c1c(C)nccc12` [HARMINE], the FRET ratio was determined as 0.754. Still for that read-out and setting: for `Cc1nccc2c1[nH]c1cc(O)ccc12` [HARMOL HYDROCHLORIDE] the value was 0.3867. On the same count and under the same terms, for `CC(C)(C#N)O[C@@H]1O[C@H](CO)[C@@H](O)[C@H](O)[C@H]1O` [LINAMARIN] the value was 0.4228; for `CC[C@@H](CO)NC(=O)[C@@H]1C=C2c3cccc4c3c(cn4C)C[C@H]2N(C)C1` [METHYSERGIDE MALEATE], 0.8993. Same read-out and setting: under `COc1ccc2nc3cc(Cl)ccc3c(Nc3cc(CN4CCCC4)c(O)c(CN4CCCC4)c3)c2n1.O=P(O)(O)O.O=P(O)(O)O.O=P(O)(O)O.O=P(O)(O)O` [PYRONARIDINE TETRAPHOSPHATE] stands 0.3325; under `CC[C@@]1(O)C[C@H](O)c2c(cc3c(c2O)C(=O)c2c(O)ccc(O)c2C3=O)[C@H]1C(=O)OC` [RUTILANTINONE], 0.6761; under `O=c1n(Cl)c(=O)n(Cl)c(=O)n1Cl` [SYMCLOSENE], 0.1489. On to MODALINE SULFATE, for which the FRET ratio amounted to 0.1375.

The same assay, now with this note: linear oligo probe, 384 well plate, Cy5/Cy3 intensity; library peak ˜1.1, a small ratio indicates intercalation.
For `CC(C)NCC(O)COc1cccc2ccccc12.Cl` (racemic) [PROPRANOLOL HYDROCHLORIDE (+/−)], the FRET ratio is listed as 0.9132. The same measure, in the same setting: for `COc1ccc(-c2cc(=O)c3ccccc3o2)cc1` [4′-METHOXYFLAVONE] the value was 0.543; for `CC(=O)c1ccc2c(c1)N(CCCN(C)C)c1ccccc1S2` [ACEPROMAZINE MALEATE], 0.8037. In the case of `COc1cc2nc(N(C)CCCNC(=O)C3CCCO3)nc(N)c2cc1OC` (stereo not drawn) [ALFUZOSIN HYDROCHLORIDE], the FRET ratio is listed as 0.6784. Regarding `O=C1c2c(O)cccc2C([C@@H]2O[C@H](CO)[C@@H](O)[C@H](O)[C@H]2O)c2cc(CO)cc(O)c21` (stereo partly drawn) [ALOIN], the FRET ratio is on record as 0.7719.

As for `N=C(N)NC(=O)c1nc(Cl)c(N)nc1N` [AMILORIDE HYDROCHLORIDE], the FRET ratio was found to be 0.7057. Consider `Nc1c2ccccc2nc2ccccc12` [AMINACRINE], for which the FRET ratio came out at 0.2941. In the case of `CCN(CC)Cc1cc(Nc2ccnc3cc(Cl)ccc23)ccc1O` [AMODIAQUINE DIHYDROCHLORIDE], the FRET ratio worked out at 0.8333. The same measure, in the same setting: for `CN1CCc2cccc3c2[C@H]1Cc1ccc(O)c(O)c1-3` [APOMORPHINE HYDROCHLORIDE] the value was 0.9228; for `NC(CO)C(=O)NNCc1ccc(O)c(O)c1O` (stereo not drawn) [BENSERAZIDE HYDROCHLORIDE], 0.7832. On the same count and under the same terms, for `COc1ccc2cc3[n+](cc2c1OC)CCc1cc2c(cc1-3)OCO2` [BERBERINE CHLORIDE] the value was 0.4262; for `Cc1ccc(S(=O)(=O)[N-]Cl)cc1.[Na+]` [CHLORAMINE-T], 0.3985. Regarding `COc1cc(OC)c2c(=O)cc(-c3ccccc3)oc2c1` [CHRYSIN DIMETHYL ETHER], the FRET ratio is reported as 0.8385. For the compound `N.N.[Cl][Pt][Cl]` [CISPLATIN], the FRET ratio stood at 0.6996. On the same count and under the same terms, for `Cc1cc(N)c2ccccc2[n+]1CCCCCCCCCC[n+]1c(C)cc(N)c2ccccc21` [DEQUALINIUM CHLORIDE] the value was 0.6126; for `COc1cc2nc(N3CCN(C(=O)C4COc5ccccc5O4)CC3)nc(N)c2cc1OC` (stereo not drawn) [DOXAZOSIN MESYLATE], 0.8089; for `CCOc1cc(C=O)ccc1O` [ETHYL VANILLIN], 0.9212. The same measure, in the same setting: for `CO/N=C1\CN(c2nc3c(cc2F)c(=O)c(C(=O)O)cn3C2CC2)CC1CN` (stereo not drawn) [GEMIFLOXACIN MESYLATE] the value was 0.9051; for `N=C(N)N/N=C/c1c(Cl)cccc1Cl` [GUANABENZ ACETATE], 0.7731; for `N=C(N)N` [GUANIDINE HYDROCHLORIDE], 0.451. In the case of `CCN(CC)CCNc1ccc(CO)c2sc3ccccc3c(=O)c12` [HYCANTHONE], the FRET ratio is reported as 0.4566. The same measure, in the same setting: under `CC[C@H]1CN2CC[C@H]1C[C@@H]2[C@@H](O)c1ccnc2ccc(OC)cc12` [HYDROQUINIDINE] stands 0.7512; under `COc1c2occc2c(OC)c2c(=O)cc(C)oc12` [KHELLIN], 0.7494; under `COc1c2occc2cc2ccc(=O)oc12` [METHOXSALEN], 0.9338. On the same count and under the same terms, under `NC(N)=NC(=O)c1nc(Cl)c(N2CCCCCC2)nc1N` [N,N-HEXAMETHYLENEAMILORIDE] stands 0.38; under `c1ccc2c(CC3=NCCN3)cccc2c1` [NAPHAZOLINE HYDROCHLORIDE], 0.8789. Still for that read-out and setting: under `CCCCC(CC)COC(=O)C(C#N)=C(c1ccccc1)c1ccccc1` (stereo not drawn) [OCTOCRYLENE] stands 0.9187.

Turning to `Cc1c(-c2cnccn2)ssc1=S` [OLTIPRAZ], the FRET ratio was found to be 0.7447.

`COc1cc2c(cc1OC)-c1cc3ccc(OC)c(OC)c3c[n+]1CC2` [PALMATINE CHLORIDE]: the FRET ratio amounted to 0.5141. For the compound `OCCN1CCN(CCCN2c3ccccc3Sc3ccc(Cl)cc32)CC1` [PERPHENAZINE], the FRET ratio is given as 0.9495. On the same count and under the same terms, for `CC1=CC(=O)c2c(O)cccc2C1=O` [PLUMBAGIN] the value was 0.9364. For the compound `COc1cc2nc(N3CCN(C(=O)c4ccco4)CC3)nc(N)c2cc1OC` [PRAZOSIN HYDROCHLORIDE], the FRET ratio turned out to be 0.818. As to `COc1cc(NC(C)CCCN)c2ncccc2c1` (stereo not drawn) [PRIMAQUINE PHOSPHATE], the FRET ratio was 0.8618. `CC(=O)[C@H]1CC[C@H]2[C@@H]3CCC4=CC(=O)CC[C@]4(C)[C@H]3CC[C@]12C` [PROGESTERONE]: the FRET ratio is given as 0.9184. Regarding `CCN(CC)CCCC(C)Nc1c2ccc(Cl)cc2nc2ccc(OC)cc12` (stereo not drawn) [QUINACRINE HYDROCHLORIDE], the FRET ratio came out at 0.2743. Same read-out and setting: under `C=C[C@H]1C[N@@]2CC[C@H]1C[C@@H]2[C@@H](O)c1ccnc2ccc(OC)cc12` [QUINIDINE GLUCONATE] stands 0.9333; under `C[C@@H]1O[C@@H](O[C@H]2[C@H](Oc3cc(O)c4c(=O)cc(-c5ccc(O)cc5)oc4c3)O[C@H](CO)[C@@H](O)[C@@H]2O)[C@H](O)[C@H](O)[C@H]1O` [RHOIFOLIN], 0.6817; under `Nc1c2c(nc3ccccc13)CCCC2` [TACRINE HYDROCHLORIDE], 0.6067. For the compound `CCN(CC)CCOc1ccc2c(c1)C(=O)c1cc(OCCN(CC)CC)ccc1-2` [TILORONE], the FRET ratio came to 0.443. On the same count and under the same terms, for `CN1[C@@H]2CC[C@H]1C[C@@H](OC(=O)c1c[nH]c3ccccc13)C2` [TROPISETRON HYDROCHLORIDE] the value was 0.7228; for LUPEOL ACETATE, 0.38.
